# pKd: −log10 of the molar value. Peptide text beside a SMILES is read from it.
# Experiments:
# [1] = target: ALK1; settings: read-out: affinity of ALK1 for BMP9; cited from earlier work
# Experimental: (§1) It is intriguing why the same peptide could promote BMP9 signalling in PAECs while inhibit BMP4 signalling in HMECs, an effect which is also recapitulated in the SPR binding studies (Fig. 4A–D, Supplemental Fig. 4). Whilst it is difficult to provide a direct structural explanation, this may relate to the difference in affinities and concentrations of the receptors for the ligands. ALK1 binds BMP9 with affinity of around 0.03 nM[8]. The reported KD values of BMP4 for ALK3 (with ALK3 expressed from different host cells) are 1–10 nM[30],[31]. It is plausible that the inhibitory effect of P3 on BM ...
# [2] = target: ALK3; settings: ALK3 expressed from different host cells; read-out: KD values of BMP4 for ALK3; cited from earlier work
# Experimental: as §1
# [3] = tested on: Smad1/5 phosphorylation in hPAECs; test: BMP9-induced Smad1/5 phosphorylation assay in hPAECs (immunoblot); assay type: cell-based, human; settings: BMP9 0.03 ng/ml (1.24 pM GFD dimer), peptide 250 μM (P3 also dose-dependent), 40 min, serum-starved, immunoblot densitometry
# Experimental: Endothelial cells were seeded in 6-cm dishes at 9 × 10^5 cells/dish and cultured for 24 hours (h) to full confluence, and then serum-starved for 16 h before treatments with control buffer, BMP9 alone, BMP9 with peptides, or peptides alone. After 40 min, cells were washed once with PBS and snap-frozen on dry ice to harvest. Cells were then lysed with buffer containing 125 mM Tris-HCl (pH 6.8), 2% SDS and 10% glycerol. The total protein concentration was determined using the DC^TM protein assay (Bio-Rad), of which 30 μg of total cell proteins was fractionated on 12% SDS-PAGE under non-reducing condition. The phosphorylation of Smad1/5 and total Smad1 were detected by anti-phospho-Smad1/5 antibody (9516 S) and anti-Smad 1 antibody (9743 S). The intensity of pSmad1/5 bands were quantified using ImageJ software, using β-actin or α-tubulin as the loading control.
# [4] = tested on: BMP4 binding to ALK3-Fc; test: SPR, BMP4 binding to ALK3-Fc in the presence of peptide; settings: BMP4 50 nM, peptide 0.25-1 mM, compared with P3
# Experimental: Peptide-receptor binding assays were performed using Biacore T200 biosensor (Biacore/GE Healthcare). ALK1-Fc, ALK2-Fc or ALK3-Fc was covalently linked onto individual flow cells of a research grade CM5 chip (GE Healthcare) via amine-coupling using standard manufacturer’s protocol. One flow cell was used as a control for subtracting non-specific binding. Peptides were injected over the immobilised chip at various concentrations up to 1 mM at a flow rate of 30 μl/min for 3 min at 37 °C in running buffer containing 0.01 M HEPES, 0.5 M NaCl, 3 mM EDTA and 0.005% v/v Surfactant P20 (pH 7.4). At the end of each peptide injection, the chip surface was regenerated with 4 M Guanidine hydrochloride (GnHCl). The biotinylated peptide P3* was immobilised onto a streptavidin (SA) chip (GE Healthcare) following the manufacturer’s protocol. Binding assays were carried out using a similar protocol as described above, only with a different injection time of 4 min. For BMP9-ALK1 and BMP4-ALK3 binding assays, BMP9 and BMP4 were added at 50 nM alone or in the presence of peptide P3 or P3r at 0.25 mM, 0.5 mM or 1 mM. Each cycle was set with a dissociation time of 12 min. Duplicated injections were performed for each ligand along with buffer blanks. The equilibrium dissociation constant KD was determined by fitting the data to a steady-state model using BIAevaluation software (GE Healthcare). […]
# [5] = tested on: Smad1/5 phosphorylation in HMEC-1; test: BMP4-induced Smad1/5 phosphorylation in HMEC-1; assay type: cell-based, human; settings: peptide 250 μM, BMP4 0.3 ng/ml (11.54 pM GFD dimer), N = 3
# [6] = tested on: ALP activity in C2C12 cells; test: BMP9-induced ALP activity in C2C12 cells; assay type: cell-based, mouse; settings: peptide 160 μM with BMP9, 65 h, DMEM 0.25% FBS, three independent experiments in duplicate
# Experimental: C2C12 mouse myoblasts were seeded in 24-well plates at 25,000 cells/well with antibiotics for 48 h. Treatments were performed in DMEM, 0.25% FBS with antibiotics in a final volume of 1.1 ml for 65 h. Cells were harvested and lysed in 1% Triton-X100 in PBS and the extracted total protein was quantified by Bio-Rad DC^TM protein assay (Bio-Rad). ALP activity was determined by incubating 15 μg of the total protein with ALP substrate p-nitrophenyl phosphate (PNPP, Sigma-Aldrich) and absorbance of the product p-nitrophenol (PNP) was recorded at 405 nm in 5 min intervals for 1 h. The relative ALP activity was expressed as fold change to the BMP9-treated control with data presented as means ± S.E.
compound,measurement,setting,value
"BMP9: bone morphogenetic protein 9, growth factor",pKd,[1],~10.52
"BMP4: bone morphogenetic protein 4, growth factor",pKd,[2],8.00 to 9.00
CC[C@H](C)[C@H](NC(=O)[C@H](CC(=O)O)NC(=O)[C@@H](NC(=O)[C@@H](NC(=O)[C@H](CCCCN)NC(=O)[C@H](Cc1ccccc1)NC(=O)[C@@H](NC(=O)[C@H](CCCCN)NC(=O)[C@H](CC(=O)O)NC(=O)[C@H](CC(C)C)NC(=O)[C@H](CCC(N)=O)NC(=O)[C@H](C)NC(=O)[C@@H]1CCCN1C(=O)[C@@H](NC(=O)[C@@H](NC(=O)[C@H](CS)NC(=O)[C@@H](NC(=O)[C@@H]1CCCN1)[C@@H](C)O)[C@@H](C)O)[C@@H](C)O)C(C)C)[C@@H](C)O)[C@@H](C)O)C(=O)N[C@@H](Cc1c[nH]cn1)C(=O)N[C@@H](Cc1ccccc1)C(=O)N[C@@H](CS)C(=O)N[C@@H](Cc1c[nH]cn1)C(=O)N[C@@H](CC(C)C)C(=O)O [Peptide P3r] (H-PTCTTPAQLDKVFKTTDIHFCHL-OH; N-terminus and C-terminus assumed),effect on BMP9-induced Smad1/5 phosphorylation in hPAECs,[3],significantly enhanced
same,competing BMP4 binding to ALK3 (in words),[4],much less effective
same,effect on BMP4-induced Smad1/5 phosphorylation in HMEC-1,[5],failed to inhibit
same,effect on BMP9-induced ALP activity in C2C12 cells,[6],No difference
